From patent US20170233413A1, “SUBSTITUTED ANNULATED PYRIMIDINES AND USE THEREOF” (Bayer Pharma Aktiengesellschaft, priority 2014, published 2017) come the findings set out here.

Assay [1] concerns the target T1, recombinant guanylate cyclase reporter cell line (Rattus norvegicus, UniProt P19686+P20595).
T1 construct: expressed in transfected cells
T1 sequence (P19686 1-690): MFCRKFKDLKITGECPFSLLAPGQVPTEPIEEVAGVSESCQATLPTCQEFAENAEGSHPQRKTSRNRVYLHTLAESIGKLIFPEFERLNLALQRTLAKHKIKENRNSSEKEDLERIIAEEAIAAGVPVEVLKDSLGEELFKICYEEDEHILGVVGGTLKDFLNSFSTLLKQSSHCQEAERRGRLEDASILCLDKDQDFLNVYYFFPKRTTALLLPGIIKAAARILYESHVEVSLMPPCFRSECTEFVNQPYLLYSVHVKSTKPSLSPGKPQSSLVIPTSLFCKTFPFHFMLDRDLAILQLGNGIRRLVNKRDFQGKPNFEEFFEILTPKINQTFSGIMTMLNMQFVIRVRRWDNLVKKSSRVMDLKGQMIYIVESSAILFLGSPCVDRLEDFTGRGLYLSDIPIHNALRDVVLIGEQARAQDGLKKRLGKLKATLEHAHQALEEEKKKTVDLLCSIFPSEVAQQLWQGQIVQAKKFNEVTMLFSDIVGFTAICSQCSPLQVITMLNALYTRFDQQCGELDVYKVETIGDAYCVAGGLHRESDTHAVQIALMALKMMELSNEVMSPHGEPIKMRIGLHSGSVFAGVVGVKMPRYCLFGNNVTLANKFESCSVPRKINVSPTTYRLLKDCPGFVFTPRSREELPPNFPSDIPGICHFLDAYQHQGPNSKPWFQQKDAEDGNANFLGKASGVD
T1 sequence (P20595 1-619): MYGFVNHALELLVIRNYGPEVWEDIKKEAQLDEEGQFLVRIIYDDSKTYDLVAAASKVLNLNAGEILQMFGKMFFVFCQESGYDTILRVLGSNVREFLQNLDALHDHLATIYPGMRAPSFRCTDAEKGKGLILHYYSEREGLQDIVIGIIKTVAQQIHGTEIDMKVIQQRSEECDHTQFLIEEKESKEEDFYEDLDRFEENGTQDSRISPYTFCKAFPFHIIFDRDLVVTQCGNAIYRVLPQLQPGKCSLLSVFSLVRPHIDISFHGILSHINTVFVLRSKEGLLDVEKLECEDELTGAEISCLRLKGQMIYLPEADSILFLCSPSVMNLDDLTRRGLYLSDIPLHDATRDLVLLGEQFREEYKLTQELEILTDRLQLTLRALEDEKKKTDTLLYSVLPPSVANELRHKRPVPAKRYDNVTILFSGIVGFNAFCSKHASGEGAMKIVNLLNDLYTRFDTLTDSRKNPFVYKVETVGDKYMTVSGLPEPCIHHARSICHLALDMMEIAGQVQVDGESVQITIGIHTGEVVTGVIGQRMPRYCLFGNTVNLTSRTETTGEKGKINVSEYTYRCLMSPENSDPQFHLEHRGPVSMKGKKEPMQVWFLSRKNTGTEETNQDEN
The assay is described as follows: Effect on a recombinant guanylate cyclase reporter cell line. The assay is classed as cell-based. As to conditions: MEC = minimum effective concentration; in some cases means of individual determinations. A digest of the protocol:
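Cellular activity measured in a recombinant rat soluble guanylate cyclase reporter cell line. Values are minimum effective concentration (MEC), some given as means of individual determinations.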

Assay [2] addresses T2, human phosphodiesterase 5 (PDE 5) (Homo sapiens, UniProt O76074).
T2 construct: PDE 5 preparations are obtained from human platelets by disruption; from tissue; host or cells: human platelets
Nature of the assay: Inhibition of human phosphodiesterase 5 (PDE 5). It counts as biochemical. The settings on record: PDE 5 preparation from human platelets; in some cases means of individual determinations. A digest of the protocol: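 Enzyme partially purified from human platelets by Mono Q ion exchange, diluted so that under 70% of substrate converts. [8-3H]cGMP at 0.025 μCi per well in Tris pH 7.5 with MgCl2/EDTA, 60 min at room temperature, yttrium SPA bead read-out. Final compound concentrations 4–0.0018 μM; IC50 from concentration–inhibition plot.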

As a reminder, the IC50 is the concentration that gives 50% inhibition. As to `CC1(C)C(=O)Nc2nc(-c3nn(Cc4ccccc4F)c4ncccc34)nc(C(=O)NC3CCOC3=O)c21` (racemic) [Example 78, rac-2-[1-(2-fluorobenzyl)-1H-pyrazolo[3,4-b]pyridin-3-yl]-5,5-dimethyl-6-oxo-N-(2-oxotetrahydrofuran-3-yl)-6,7-dihydro-5H-pyrrolo[2,3-d]pyrimidine-4-carboxamide], in assay [1], the MEC came to 0.3 µM. Besides, inhibition in assay [2] was half-maximal at 9.3 nM (IC50).
The like results for `CC1(C)C(=O)Nc2nc(-c3nn(Cc4ccccc4F)c4ncccc34)nc(C(=O)Nc3nnc[nH]3)c21` [Example 94, 2-[1-(2-fluorobenzyl)-1H-pyrazolo[3,4-b]pyridin-3-yl]-5,5-dimethyl-6-oxo-N-(4H-1,2,4-triazol-3-yl)-6,7-dihydro-5H-pyrrolo[2,3-d]pyrimidine-4-carboxamide] were, in that order, 0.3 µM and 16 nM.
In the same order, the values of `Cc1nc2c(cc1F)c(-c1nc3c(c(C(=O)NC(C4CC4)C4CC4)n1)C(C)(C)C(=O)N3)nn2Cc1cccc(F)c1F` [Example 39] are 0.3 µM and 34 nM.
The like results for `Cc1nc2c(cc1F)c(-c1nc3c(c(C(N)=O)n1)C(C)(C(F)(F)F)C(=O)N3)nn2Cc1ccccc1F` (single isomer, unassigned; ent-2) [Example 13, ent-2-[5-fluoro-1-(2-fluorobenzyl)-6-methyl-1H-pyrazolo[3,4-b]pyridin-3-yl]-5-methyl-6-oxo-5-(trifluoromethyl)-6,7-dihydro-5H-pyrrolo[2,3-d]pyrimidine-4-carboxamide (enantiomer A)] were, in that order, 0.1 µM and 600 nM.
For the compound `CC1(C(F)(F)F)C(=O)Nc2nc(-c3nn(Cc4ncccc4F)c4ncc(F)cc34)nc(C(N)=O)c21` (single isomer, unassigned; ent-2) [Example 22, ent-2-{5-Fluoro-1-[(3-fluoropyridin-2-yl)methyl]-1H-pyrazolo[3,4-b]pyridin-3-yl}-5-methyl-6-oxo-5-(trifluoromethyl)-6,7-dihydro-5H-pyrrolo[2,3-d]pyrimidine-4-carboxamide (enantiomer A)], in assay [1], the MEC is 2 µM. The IC50 in assay [2] was 170 nM.
In the same order, the values of `C=CCONC(=O)c1nc(-c2nn(Cc3ccccc3F)c3ncccc23)nc2c1C(C)(C)C(=O)N2` [Example 62, 2-[1-(2-fluorobenzyl)-1H-pyrazolo[3,4-b]pyridin-3-yl]-5,5-dimethyl-6-oxo-N-(prop-2-en-1-yloxy)-6,7-dihydro-5H-pyrrolo[2,3-d]pyrimidine-4-carboxamide] are 0.1 µM and 18 nM.
The like results for `Cc1nnc(NC(=O)c2nc(-c3nn(Cc4ccccc4F)c4ncccc34)nc3c2C(C)(C)C(=O)N3)o1` [Example 71, 2-[1-(2-fluorobenzyl)-1H-pyrazolo[3,4-b]pyridin-3-yl]-5,5-dimethyl-N-(5-methyl-1,3,4-oxadiazol-2-yl)-6-oxo-6,7-dihydro-5H-pyrrolo[2,3-d]pyrimidine-4-carboxamide] were, in that order, 0.3 µM and 170 nM.
As for `CC1(C)C(=O)Nc2nc(-c3nn(Cc4ccccc4F)c4ncccc34)nc(C(=O)NCC3CCCO3)c21` (racemic) [Example 130, rac-2-[1-(2-fluorobenzyl)-1H-pyrazolo[3,4-b]pyridin-3-yl]-5,5-dimethyl-6-oxo-N-(tetrahydrofuran-2-ylmethyl)-6,7-dihydro-5H-pyrrolo[2,3-d]pyrimidine-4-carboxamide], the MEC in assay [1] came to 0.3 µM. The compound further yielded an IC50 in assay [2] of 28 nM.
The like results for `CC1(C)C(=O)Nc2nc(-c3nn(Cc4ccccc4F)c4ncccc34)nc(C(=O)Nc3cc(F)c(F)c(F)c3)c21` [Example 77, 2-[1-(2-fluorobenzyl)-1H-pyrazolo[3,4-b]pyridin-3-yl]-5,5-dimethyl-6-oxo-N-(3,4,5-trifluorophenyl)-6,7-dihydro-5H-pyrrolo[2,3-d]pyrimidine-4-carboxamide] were, in that order, 1 µM and 87 nM.
In the same order, the values of `CC1(C)C(=O)Nc2nc(-c3nn(Cc4ccccc4F)c4ncccc34)nc(C(=O)NC3CC3)c21` [Example 24, N-Cyclopropyl-2-[1-(2-fluorobenzyl)-1H-pyrazolo[3,4-b]pyridin-3-yl]-5,5-dimethyl-6-oxo-6,7-dihydro-5H-pyrrolo[2,3-d]pyrimidine-4-carboxamide] are 0.1 µM and 3.5 nM.
The like results for `CC1(C)C(=O)Nc2nc(-c3nn(Cc4ccccc4F)c4cc(Cl)ccc34)nc(C(N)=O)c21` [Example 3, 2-[6-Chloro-1-(2-fluorobenzyl)-1H-indazol-3-yl]-5,5-dimethyl-6-oxo-6,7-dihydro-5H-pyrrolo[2,3-d]pyrimidine-4-carboxamide] were, in that order, 0.03 µM and 100 nM.
For the compound `Cc1cccnc1NC(=O)c1nc(-c2nn(Cc3ccccc3F)c3ncccc23)nc2c1C(C)(C)C(=O)N2` [Example 113, 2-[1-(2-fluorobenzyl)-1H-pyrazolo[3,4-b]pyridin-3-yl]-5,5-dimethyl-N-(3-methylpyridin-2-yl)-6-oxo-6,7-dihydro-5H-pyrrolo[2,3-d]pyrimidine-4-carboxamide], the MEC in assay [1] amounted to 0.1 µM. In assay [2], this compound displayed an IC50 of 44 nM.
In the same order, the values of `CN(CC1CC1)C(=O)c1nc(-c2nn(Cc3ccccc3F)c3cc(Cl)ccc23)nc2c1C(C)(C)C(=O)N2` [Example 47] are 0.03 µM and 730 nM.
The like results for `CCC(=O)C(C)NC(=O)c1nc(-c2nn(Cc3ccccc3F)c3ncccc23)nc2c1C(C)(C)C(=O)N2` (racemic) [Example 66, rac-2-[1-(2-fluorobenzyl)-1H-pyrazolo[3,4-b]pyridin-3-yl]-5,5-dimethyl-6-oxo-N-(3-oxopentan-2-yl)-6,7-dihydro-5H-pyrrolo[2,3-d]pyrimidine-4-carboxamide] were, in that order, 0.3 µM and 87 nM.
For the compound `Cc1nc2c(cc1F)c(-c1nc3c(c(C(N)=O)n1)C(C)(C(F)(F)F)C(=O)N3)nn2Cc1ncccc1F` (single isomer, unassigned; ent-2) [Example 19, ent-2-{5-Fluoro-1-[(3-fluoropyridin-2-yl)methyl]-6-methyl-1H-pyrazolo[3,4-b]pyridin-3-yl}-5-methyl-6-oxo-5-(trifluoromethyl)-6,7-dihydro-5H-pyrrolo[2,3-d]pyrimidine-4-carboxamide (enantiomer A)], the MEC in assay [1] came out at 10 µM. This compound also showed an IC50 in assay [2] of 220 nM.
The like results for `Cn1ccc(NC(=O)c2nc(-c3nn(Cc4ccccc4F)c4ncccc34)nc3c2C(C)(C)C(=O)N3)n1` [Example 70, 2-[1-(2-fluorobenzyl)-1H-pyrazolo[3,4-b]pyridin-3-yl]-5,5-dimethyl-N-(1-methyl-1H-pyrazol-3-yl)-6-oxo-6,7-dihydro-5H-pyrrolo[2,3-d]pyrimidine-4-carboxamide] were, in that order, 0.3 µM and 24 nM.
The like results for `COCCNC(=O)c1nc(-c2nn(Cc3ncccc3F)c3ncc(F)cc23)nc2c1C(C)(C)C(=O)N2` [Example 36] were, in that order, 3 µM and 73 nM.
In the same order, the values of `CC1(C)C(=O)Nc2nc(-c3nn(Cc4ccccc4F)c4ncccc34)nc(C(=O)NCCO)c21` [Example 114, 2-[1-(2-fluorobenzyl)-1H-pyrazolo[3,4-b]pyridin-3-yl]-N-(2-hydroxyethyl)-5,5-dimethyl-6-oxo-6,7-dihydro-5H-pyrrolo[2,3-d]pyrimidine-4-carboxamide] are 0.3 µM and 15 nM.
